Measurements from paper PMC3639963, “A New Class of Small Molecule Inhibitor of BMP Signaling” (PLoS ONE, 2013).

What was measured:
Assay in all cases: DSF thermal shift
Type in all cases: binding
Conditions in all cases: 10 µM inhibitor; read-out: Tm shift
GRK1 = biological target: T1, GRK1 (Homo sapiens, UniProt Q15835)
T1 construct: purchased Nanosyn (enzymatic panel); SGC in-house recombinant human kinases (DSF panel); Invitrogen (ALK1-6)
T1 sequence (Q15835 1-563): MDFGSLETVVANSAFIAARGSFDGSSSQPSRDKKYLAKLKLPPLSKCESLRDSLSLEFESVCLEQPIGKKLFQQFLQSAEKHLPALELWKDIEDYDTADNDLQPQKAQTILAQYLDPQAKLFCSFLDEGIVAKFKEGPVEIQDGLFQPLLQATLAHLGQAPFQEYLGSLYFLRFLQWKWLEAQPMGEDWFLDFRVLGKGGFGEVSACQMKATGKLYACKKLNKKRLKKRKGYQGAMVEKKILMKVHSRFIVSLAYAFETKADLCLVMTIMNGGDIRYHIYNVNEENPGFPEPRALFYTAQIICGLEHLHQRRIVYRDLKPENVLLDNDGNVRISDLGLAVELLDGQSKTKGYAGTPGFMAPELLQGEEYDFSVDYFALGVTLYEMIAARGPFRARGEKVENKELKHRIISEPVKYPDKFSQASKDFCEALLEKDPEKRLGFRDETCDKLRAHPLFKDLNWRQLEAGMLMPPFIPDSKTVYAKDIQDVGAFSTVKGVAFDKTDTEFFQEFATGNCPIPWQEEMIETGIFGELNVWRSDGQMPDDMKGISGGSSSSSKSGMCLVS
Procedure: (§1) Thermal melting experiments were performed using a Real Time PCR machine Mx3005p (Stratagene) with a protein concentration of 1–2 µM and 10 µM inhibitor as described previously, [25]. […] Recombinant human kinases for DSF screening were prepared by SGC using published methods, [36].

MEK2 = biological target: T2, MEK2 (Homo sapiens, UniProt P36507)
T2 construct: purchased Nanosyn (enzymatic panel); SGC in-house recombinant human kinases (DSF panel); Invitrogen (ALK1-6)
Procedure: as §1

NEK11 = biological target: T3, NEK11 (Homo sapiens, UniProt Q8NG66)
T3 construct: purchased Nanosyn (enzymatic panel); SGC in-house recombinant human kinases (DSF panel); Invitrogen (ALK1-6)
T3 sequence (Q8NG66 1-645): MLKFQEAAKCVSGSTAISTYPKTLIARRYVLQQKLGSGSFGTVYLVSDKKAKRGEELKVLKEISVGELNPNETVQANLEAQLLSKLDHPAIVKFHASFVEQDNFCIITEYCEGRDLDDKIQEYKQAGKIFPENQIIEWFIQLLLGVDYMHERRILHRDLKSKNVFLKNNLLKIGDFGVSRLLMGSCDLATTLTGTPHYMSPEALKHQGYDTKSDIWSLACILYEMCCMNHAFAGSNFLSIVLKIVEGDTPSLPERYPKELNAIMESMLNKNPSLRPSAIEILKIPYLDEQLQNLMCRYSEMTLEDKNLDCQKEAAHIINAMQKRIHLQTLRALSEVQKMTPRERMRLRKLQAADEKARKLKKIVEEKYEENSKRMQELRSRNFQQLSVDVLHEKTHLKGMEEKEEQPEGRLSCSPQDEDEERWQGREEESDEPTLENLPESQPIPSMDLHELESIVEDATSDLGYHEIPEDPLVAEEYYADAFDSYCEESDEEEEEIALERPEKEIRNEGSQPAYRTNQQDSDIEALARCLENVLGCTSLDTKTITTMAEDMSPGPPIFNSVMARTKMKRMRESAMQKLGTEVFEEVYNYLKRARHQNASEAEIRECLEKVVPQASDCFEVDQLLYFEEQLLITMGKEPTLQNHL
Procedure: as §1

PLK4 = biological target: T4, PLK4 (Homo sapiens, UniProt O00444)
T4 construct: purchased Nanosyn (enzymatic panel); SGC in-house recombinant human kinases (DSF panel); Invitrogen (ALK1-6)
T4 sequence (O00444 1-970): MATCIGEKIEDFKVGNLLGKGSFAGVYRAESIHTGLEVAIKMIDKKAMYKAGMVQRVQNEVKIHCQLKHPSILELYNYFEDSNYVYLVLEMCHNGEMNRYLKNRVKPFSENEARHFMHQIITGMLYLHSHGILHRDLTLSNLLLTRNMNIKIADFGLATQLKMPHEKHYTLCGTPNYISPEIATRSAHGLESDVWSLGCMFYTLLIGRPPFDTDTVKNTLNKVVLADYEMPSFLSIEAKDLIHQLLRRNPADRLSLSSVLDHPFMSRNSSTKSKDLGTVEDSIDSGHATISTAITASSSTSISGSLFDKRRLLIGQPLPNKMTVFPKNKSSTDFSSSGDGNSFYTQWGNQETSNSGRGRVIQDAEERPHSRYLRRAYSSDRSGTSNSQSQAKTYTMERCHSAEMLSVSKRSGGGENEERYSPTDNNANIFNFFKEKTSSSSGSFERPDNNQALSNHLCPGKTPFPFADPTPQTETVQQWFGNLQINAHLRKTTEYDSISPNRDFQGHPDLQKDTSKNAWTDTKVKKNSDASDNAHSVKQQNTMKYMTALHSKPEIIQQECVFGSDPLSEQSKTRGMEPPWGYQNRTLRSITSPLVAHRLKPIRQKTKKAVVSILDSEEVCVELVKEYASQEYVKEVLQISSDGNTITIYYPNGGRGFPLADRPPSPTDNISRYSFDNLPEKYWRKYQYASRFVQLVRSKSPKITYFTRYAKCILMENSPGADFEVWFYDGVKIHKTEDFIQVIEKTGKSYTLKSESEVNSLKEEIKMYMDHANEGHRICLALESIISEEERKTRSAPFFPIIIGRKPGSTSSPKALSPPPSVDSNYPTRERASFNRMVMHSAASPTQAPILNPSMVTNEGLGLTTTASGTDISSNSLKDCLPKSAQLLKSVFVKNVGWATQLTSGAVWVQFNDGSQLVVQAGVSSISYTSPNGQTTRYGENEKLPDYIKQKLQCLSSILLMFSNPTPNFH
Procedure: as §1

PIM2 = biological target: T5, PIM2 (Homo sapiens, UniProt Q9P1W9)
T5 construct: purchased Nanosyn (enzymatic panel); SGC in-house recombinant human kinases (DSF panel); Invitrogen (ALK1-6)
Procedure: as §1

ALK4 = biological target: T6, ALK4 (Homo sapiens, UniProt P36896)
T6 construct: purchased Invitrogen
T6 sequence (P36896 24-505): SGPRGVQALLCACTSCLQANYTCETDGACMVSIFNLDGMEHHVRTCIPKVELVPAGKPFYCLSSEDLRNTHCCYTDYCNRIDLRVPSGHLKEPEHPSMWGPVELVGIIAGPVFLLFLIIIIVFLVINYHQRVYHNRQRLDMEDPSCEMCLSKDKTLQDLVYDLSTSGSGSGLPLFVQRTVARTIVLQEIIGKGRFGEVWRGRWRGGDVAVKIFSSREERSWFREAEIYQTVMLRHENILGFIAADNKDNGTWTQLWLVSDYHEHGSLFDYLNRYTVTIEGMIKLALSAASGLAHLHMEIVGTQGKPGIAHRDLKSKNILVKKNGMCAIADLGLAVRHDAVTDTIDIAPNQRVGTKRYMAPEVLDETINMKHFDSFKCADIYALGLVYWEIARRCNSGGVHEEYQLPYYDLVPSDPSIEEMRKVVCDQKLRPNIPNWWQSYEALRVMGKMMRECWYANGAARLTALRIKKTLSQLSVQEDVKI
Procedure: as §1

ERK1 = biological target: T7, ERK1 (Homo sapiens, UniProt P27361)
T7 construct: purchased Nanosyn (enzymatic panel); SGC in-house recombinant human kinases (DSF panel); Invitrogen (ALK1-6)
Procedure: as §1

T2 sequence (P36507 whole entry): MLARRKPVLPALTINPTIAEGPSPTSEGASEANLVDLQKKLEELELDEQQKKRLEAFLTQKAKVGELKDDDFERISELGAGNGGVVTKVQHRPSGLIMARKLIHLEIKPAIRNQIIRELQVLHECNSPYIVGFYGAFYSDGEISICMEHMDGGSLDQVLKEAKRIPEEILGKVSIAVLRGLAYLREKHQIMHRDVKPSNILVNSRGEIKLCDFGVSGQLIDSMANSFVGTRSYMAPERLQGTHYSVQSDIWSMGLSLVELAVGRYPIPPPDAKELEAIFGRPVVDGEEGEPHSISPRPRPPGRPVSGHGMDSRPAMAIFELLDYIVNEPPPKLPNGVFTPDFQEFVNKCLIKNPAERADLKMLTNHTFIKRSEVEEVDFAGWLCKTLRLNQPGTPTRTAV
T5 sequence (Q9P1W9 whole entry): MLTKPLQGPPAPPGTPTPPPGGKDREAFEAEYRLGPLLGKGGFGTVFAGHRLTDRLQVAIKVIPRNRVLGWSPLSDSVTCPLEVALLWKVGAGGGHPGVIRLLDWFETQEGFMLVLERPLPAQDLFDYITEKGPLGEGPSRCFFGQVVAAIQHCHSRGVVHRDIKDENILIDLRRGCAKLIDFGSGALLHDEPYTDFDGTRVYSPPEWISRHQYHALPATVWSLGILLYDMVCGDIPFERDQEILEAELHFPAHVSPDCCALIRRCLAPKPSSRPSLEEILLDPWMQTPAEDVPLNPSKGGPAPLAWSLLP
T7 sequence (P27361 whole entry): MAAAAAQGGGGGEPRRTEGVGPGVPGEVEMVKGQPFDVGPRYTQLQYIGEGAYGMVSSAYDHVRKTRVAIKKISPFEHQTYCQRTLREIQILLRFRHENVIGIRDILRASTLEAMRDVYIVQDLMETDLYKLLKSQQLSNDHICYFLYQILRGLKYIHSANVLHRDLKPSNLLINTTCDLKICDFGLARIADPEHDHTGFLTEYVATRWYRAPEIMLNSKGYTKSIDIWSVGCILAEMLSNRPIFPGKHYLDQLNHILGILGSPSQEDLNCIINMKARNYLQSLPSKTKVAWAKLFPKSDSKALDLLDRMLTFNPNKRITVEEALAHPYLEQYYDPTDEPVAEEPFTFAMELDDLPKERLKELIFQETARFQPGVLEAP

SMILES	ΔTm at 10 µM (GRK1) [°C]	ΔTm at 10 µM (MEK2) [°C]	ΔTm at 10 µM (NEK11) [°C]	ΔTm at 10 µM (PLK4) [°C]	ΔTm at 10 µM (PIM2) [°C]	ΔTm at 10 µM (ALK4) [°C]	ΔTm at 10 µM (ERK1) [°C]
c1cc(-c2cnn3cc(-c4ccc(OCCN5CCCCC5)cc4)cnc23)ccn1 [Dorsomorphin]	0.4	-0.1	2	4.2	0.6	6.1	0
COc1cc(-c2cc(-c3cccc(O)c3)cnc2N)cc(OC)c1OC [K02288, 3-[6-amino-5-(3,4,5-trimethoxy-phenyl)-pyridin-3-yl]-phenol]	0	2.4	0.3	0	0.1	8.2	0.2
c1ccc2c(-c3cnn4cc(-c5ccc(N6CCNCC6)cc5)cnc34)ccnc2c1 [LDN-193189]	-0.7	2.1	-0.3	3.7	-1.3	11	0.2
